From patent publication US6867192B1, “Compounds useful in the treatment of inflammatory diseases” (priority 1998, dated 2005)

molecular target: T1, integrin α4β7, expressed on the RPMI 8866 (human B lymphoid cell line) cell membrane with MAdCAM-1 (Homo sapiens, UniProt P13612+P26010); test: RPMI 8866/MAdCAM-1 adhesion assay; assay type: cell-based; details: RPMI 8866 cell adhesion to MAdCAM-1, 1 mM MnCl2; mean of n experiments
T1 construct: integrin α4β7, expressed on the RPMI 8866 (human B lymphoid cell line) cell membrane; endogenous in cells; host or cells: RPMI 8866 cells (integrin). zzMAdCAM-1 was made in house in baculovirus-infected Spodoptera frugiperda cells
T1 sequence (P13612 34-1032): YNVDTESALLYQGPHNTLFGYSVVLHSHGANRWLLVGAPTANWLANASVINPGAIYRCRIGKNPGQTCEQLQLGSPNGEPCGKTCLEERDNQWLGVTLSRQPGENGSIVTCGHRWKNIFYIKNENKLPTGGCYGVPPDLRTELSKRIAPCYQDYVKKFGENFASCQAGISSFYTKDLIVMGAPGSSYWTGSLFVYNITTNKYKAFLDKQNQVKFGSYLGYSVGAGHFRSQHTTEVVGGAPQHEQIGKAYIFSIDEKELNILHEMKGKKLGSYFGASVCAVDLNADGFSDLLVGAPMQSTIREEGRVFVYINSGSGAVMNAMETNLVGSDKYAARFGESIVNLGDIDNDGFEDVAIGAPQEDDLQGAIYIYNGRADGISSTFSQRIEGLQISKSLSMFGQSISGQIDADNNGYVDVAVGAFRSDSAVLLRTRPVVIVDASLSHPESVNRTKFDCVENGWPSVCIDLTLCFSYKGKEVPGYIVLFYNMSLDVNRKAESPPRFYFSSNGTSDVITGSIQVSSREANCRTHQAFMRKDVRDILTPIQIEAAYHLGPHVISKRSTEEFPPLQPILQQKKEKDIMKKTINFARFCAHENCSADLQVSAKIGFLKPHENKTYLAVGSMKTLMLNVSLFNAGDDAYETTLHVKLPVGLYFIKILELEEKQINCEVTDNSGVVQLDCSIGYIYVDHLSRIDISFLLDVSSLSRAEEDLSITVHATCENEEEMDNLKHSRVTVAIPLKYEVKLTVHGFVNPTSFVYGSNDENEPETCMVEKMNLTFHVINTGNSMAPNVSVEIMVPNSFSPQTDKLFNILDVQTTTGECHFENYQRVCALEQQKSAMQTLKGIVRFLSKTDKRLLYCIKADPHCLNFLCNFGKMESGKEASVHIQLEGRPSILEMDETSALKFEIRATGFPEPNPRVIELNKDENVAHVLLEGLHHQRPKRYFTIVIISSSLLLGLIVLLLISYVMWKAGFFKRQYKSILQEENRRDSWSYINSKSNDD
T1 sequence (P26010 20-798): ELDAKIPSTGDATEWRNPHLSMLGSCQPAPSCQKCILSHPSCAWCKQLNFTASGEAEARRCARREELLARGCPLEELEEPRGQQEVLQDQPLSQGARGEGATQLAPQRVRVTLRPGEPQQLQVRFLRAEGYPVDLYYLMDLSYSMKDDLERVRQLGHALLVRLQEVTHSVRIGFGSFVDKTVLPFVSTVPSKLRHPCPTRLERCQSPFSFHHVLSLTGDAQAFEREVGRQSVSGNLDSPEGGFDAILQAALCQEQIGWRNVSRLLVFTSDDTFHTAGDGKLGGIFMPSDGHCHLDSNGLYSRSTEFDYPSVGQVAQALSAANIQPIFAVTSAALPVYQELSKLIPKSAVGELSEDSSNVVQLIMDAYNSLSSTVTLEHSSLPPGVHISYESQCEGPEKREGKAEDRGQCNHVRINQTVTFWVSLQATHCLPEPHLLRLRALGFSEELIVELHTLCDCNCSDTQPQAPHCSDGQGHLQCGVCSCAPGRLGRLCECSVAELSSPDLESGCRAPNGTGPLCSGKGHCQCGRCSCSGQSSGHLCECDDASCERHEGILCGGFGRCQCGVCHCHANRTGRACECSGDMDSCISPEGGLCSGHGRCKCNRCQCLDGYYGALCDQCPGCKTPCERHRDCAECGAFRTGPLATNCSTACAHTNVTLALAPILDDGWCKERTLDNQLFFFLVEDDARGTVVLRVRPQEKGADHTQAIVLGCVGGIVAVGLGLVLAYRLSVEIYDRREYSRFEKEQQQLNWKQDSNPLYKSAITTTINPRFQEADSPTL
Method: (4) RPMI 8866/MAdCAM-1 Adhesion Assay
This assay was used to investigate the interaction of the integrin α4β7, expressed on the RPMI 8866 (human B lymphoid cell line) cell membrane with MAdCAM-1. Polystyrene 96-well microtitre plates were coated with human immunoglobulin G (IgG; Sigma Chemicals, UK, Product No. 14506) at a concentration of 0.05 mg ml^−1 in bicarbonate buffer (36 mM NaHCO3 and 22 mM Na2CO3, prepared in Dulbecco's phosphate buffered saline at pH 9.8 (PBS); Sigma Chemicals, UK, Product No. 14190-094) for 2 hours at 37° C. This solution was then aspirated and the plates were washed twice with PBS.
MAdCAM-1 was prepared by cloning its constituent domains, under the control of a polyhedrin promoter, into a baculovirus expression system with a zz (Protein A) tag. The amplified baculovirus containing zzMAdCAM-1 was used to infect Spodoptera frugiperda cells growing in suspension in SF900II medium supplemented with 5% foetal calf serum. The cells were infected at a multiplicity of infection of 1 and harvested 48 hours later by centrifugation. Protease inhibitors were added and the culture supernatant was clarified either by filtration through a 0.2 μm filter or by centrifugation. The zzMAdCAM-1 was then purified from this clarified medium using an IgG agarose column, equilibrated with either 20 mM sodium phosphate pH 7.2 alone or in the presence of 0.5M sodium chloride. Elution of zzMAdCAM-1 from the column was mediated using 3M ammonium thiocyanate. The sample was then dialysed thoroughly, using 20 mM sodium phosphate pH 7.2, to remove the ammonium thiocyanate. The purified zzMAdCAM-1 was then concentrated to a small volume (Amicon stirred cell concentrators) until a concentration of 0.5 mg ml^−1 was obtained, calculated using the extinction coefficient value.
This solution of zzMAdCAM-1 was diluted 1:2500 and then incubated overnight at 4° C. in the IgG coated microtitre plates with 3% bovine serum albumin (BSA) in PBS, followed by aspiration and two further washes with PBS. A concentration of the RPMI 8866 cells (3×10^6 cells ml^−1), grown in cell media RPMI 1640 (HyClone Ltd, Product No. B-9106-L) supplemented with 10% heat inactivated foetal calf serum (FCS; Gibco BRL, Product No. 10099-075) and 2 mM L-glutamine, were labelled with 10 μM of the fluorescent dye, 2′, 7′-bis(2-carboxyethyl)-5-(e6)-carboxyfluorescein acetoxymethyl ester (BCECF-AM; Molecular Probes Inc. Product No. B-1150) at 37° C. for 10 minutes. The excess dye was then removed by centrifugation at 500×g for 5 minutes and the cells were resuspended at a concentration of 6×10^6 cells ml^−1 in Hank's balanced salt solution (HBSS; Gibco BRL, Product No. 1419D-094).
Equal volumes of compounds (dissolved in an appropriate solvent and diluted in HBSS containing 1 mM MnCl2) and the labelled RPMI 8866 cells, were added to the MAdCAM-1 coated plates and adhesion was allowed to proceed for 30 minutes at 37° C. Non, or loosely adhered cells, were removed by inversion of the plate and blotted with tissue paper. Two washes with PBS and further blotting were then performed, before the addition of 2% detergent (Triton-X®; Sigma Chemicals UK, Product No. X100). Counting was undertaken in a Wallac Victor™ Fluorimeter, where low fluorescence values were indicative of compounds which had inhibited adhesion. All samples were assayed in singlicate and the following four parameter curve fit, shown by Equation (I) (above) was applied. Wherein the maximum and minimum values are those compared to adhesion in the absence of compound and in the presence of the dipotassium salt of 2 mM EDTA; Sigma Chemicals, UK, Product No. ED2P). Data is presented as the mean pIC50 with the standard error of the mean of n experiments.

IC50 [nM] | Structure (SMILES)
158 | CC(=O)N1CCN(C(=O)Oc2ccc(C[C@H](NC(=O)[C@H](CC(C)C)NC(=O)COc3ccccc3C(C)(C)C)C(=O)O)cc2)CC1 [Example 16, (2S)-3-(4-{[(4-Acetyl-1-piperazinyl)carbonyl]oxy}phenyl)-2-{[(2S)-2-({2-[2-(tert-butyl)phenoxy]acetyl}amino)-4-methylpentanoyl]amino}propanoic acid]
158 | CC(=O)N1CCN(C(=O)Oc2ccc(C[C@H](NC(=O)[C@H](CC(C)C)NC(=O)COc3ccccc3C)C(=O)O)cc2)CC1 [Example 17, (2S)-3-(4-{[(4-Acetyl-1-piperazinyl)carbonyl]oxy}phenyl)-2-[((2S)-4-methyl-2-{[2-(2-methylphenoxy)acetyl]amino}pentanoyl)amino]propanoic acid]
200 | CC(C)C[C@H](NC(=O)COc1ccccc1C(C)(C)C)C(=O)N[C@@H](Cc1ccc(OC(=O)N2CCN(C(=O)c3ccccc3)CC2)cc1)C(=O)O [Example 20, (2S)-3-(4-{[(4-Benzoyl-1-piperazinyl)carbonyl]oxy}phenyl)-2-{[(2S)-2-({2-[2-(tert-butyl)phenoxy]acetyl}amino)-4-methylpentanoyl]amino}propanoic acid]
200 | Cc1ccccc1OCC(=O)N[C@@H](CC(C)C)C(=O)N[C@@H](Cc1ccc(OC(=O)N2CCN(C(=O)c3ccccc3)CC2)cc1)C(=O)O [Example 21, (2S)-3-(4-{[(4-Benzoyl-1-piperazinyl)carbonyl]oxy}phenyl)-2-[((2S)-4-methyl-2-{[2-(2-methylphenoxy)acetyl]amino}pentanoyl)amino]propanoic acid]
63.1 | CC(C)C[C@H](NC(=O)COc1ccccc1I)C(=O)N[C@@H](Cc1ccc(OC(=O)N2CCOCC2)cc1)C(=O)O [Example 23, (2S)-2-[((2S)-2-{[2-(2-Iodophenoxy)acetyl]amino}-4-methylpentanoyl)amino]-3-{4-[(4-morpholinylcarbonyl)oxy]phenyl}propanoic acid]
251 | CC(C)C[C@H](NC(=O)COc1ccccc1C(C)(C)C)C(=O)N[C@@H](Cc1ccc(OC(=O)N2CCOCC2)cc1)C(=O)O [Example 24, (2S)-2-{[(2S)-2-({2-[2-(Tert-butyl)phenoxy]acetyl}amino)-4-methylpentanoyl]amino}-3-{4-[(4-morpholinylcarbonyl)oxy]phenyl}propanoic acid]
31.6 | Cc1ccccc1OCC(=O)N[C@@H](CC(C)C)C(=O)N[C@@H](Cc1ccc(OC(=O)N2CCC(C(N)=O)CC2)cc1)C(=O)O [Example 27, (2S)-3-[4-({[4-(Aminocarbonyl)-1-piperidinyl]carbonyl}oxy)phenyl]-2-[((2S)-4-methyl-2-{[2-(2-methylphenoxy)acetyl]amino}pentanoyl)amino]propanoic acid]
126 | CC(C)C[C@H](NC(=O)c1cccc2c1oc1ccccc12)C(=O)N[C@@H](Cc1ccc(OC(=O)N2CCC(C(N)=O)CC2)cc1)C(=O)O [Example 28, (2S)-3-[4-({[4-(Aminocarbonyl)-1-piperidinyl]carbonyl}oxy)phenyl]-2-({(2S)-2-[(dibenzo[b,d]furan-4-ylcarbonyl)amino]-4-methylpentanoyl}amino)propanoic acid]
